# Laboratory results reported in ChEMBL document CHEMBL4390652, “Design, biological evaluation and X-ray crystallography of nanomolar multifunctional ligands targeting simultaneously acetylcholinesterase and glycogen synthase kinase-3” (Eur J Med Chem, 2019).
# How the values were obtained:
# [1] = molecular target: Serine/threonine-protein kinase PLK2 (Homo sapiens) (UniProt Q9NYY3); assay: Binding affinity to wild-type human partial length PLK2 (H58 to F354 residues) expressed in mammalian expression system assessed as residual binding level at 10 uM by Kinomescan method relative to control
# Serine/threonine-protein kinase PLK2 (Homo sapiens), sequence (Q9NYY3 whole entry, looked up, the tested form may be a part): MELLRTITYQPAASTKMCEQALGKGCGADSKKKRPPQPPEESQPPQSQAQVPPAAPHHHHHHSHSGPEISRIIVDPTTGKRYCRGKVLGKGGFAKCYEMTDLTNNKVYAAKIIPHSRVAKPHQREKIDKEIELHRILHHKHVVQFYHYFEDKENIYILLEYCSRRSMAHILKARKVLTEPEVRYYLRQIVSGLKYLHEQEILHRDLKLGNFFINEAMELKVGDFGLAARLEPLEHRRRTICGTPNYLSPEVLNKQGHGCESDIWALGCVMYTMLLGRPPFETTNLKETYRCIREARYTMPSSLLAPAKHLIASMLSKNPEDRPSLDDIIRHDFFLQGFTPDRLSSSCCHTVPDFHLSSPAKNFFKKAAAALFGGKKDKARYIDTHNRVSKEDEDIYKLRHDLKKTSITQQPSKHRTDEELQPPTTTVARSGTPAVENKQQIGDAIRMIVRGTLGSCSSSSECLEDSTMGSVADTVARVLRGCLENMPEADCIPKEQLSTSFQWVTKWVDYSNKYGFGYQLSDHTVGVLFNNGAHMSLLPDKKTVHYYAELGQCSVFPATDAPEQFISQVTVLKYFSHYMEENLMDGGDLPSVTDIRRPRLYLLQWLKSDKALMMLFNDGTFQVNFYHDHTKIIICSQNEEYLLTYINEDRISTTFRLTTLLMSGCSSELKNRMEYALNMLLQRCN
# [2] = molecular target: Phosphatidylinositol 3-kinase C2 domain-containing subunit gamma (Homo sapiens) (UniProt O75747); assay: Binding affinity to wild-type human partial length PIK3C2G (M1 to I1446 residues) expressed in mammalian expression system assessed as residual binding level at 10 uM by Kinomescan method relative to control
# [3] = tested on: Mast/stem cell growth factor receptor Kit (Homo sapiens), P10721 [D816H]; assay: Binding affinity to human partial length KIT D816H mutant (I571 to D952 residues) expressed in mammalian expression system assessed as residual binding level at 10 uM by Kinomescan method relative to control
# Mast/stem cell growth factor receptor Kit (Homo sapiens), P10721 [D816H], sequence (P10721 whole entry D816H, the tested form may be a part, canonical isoform): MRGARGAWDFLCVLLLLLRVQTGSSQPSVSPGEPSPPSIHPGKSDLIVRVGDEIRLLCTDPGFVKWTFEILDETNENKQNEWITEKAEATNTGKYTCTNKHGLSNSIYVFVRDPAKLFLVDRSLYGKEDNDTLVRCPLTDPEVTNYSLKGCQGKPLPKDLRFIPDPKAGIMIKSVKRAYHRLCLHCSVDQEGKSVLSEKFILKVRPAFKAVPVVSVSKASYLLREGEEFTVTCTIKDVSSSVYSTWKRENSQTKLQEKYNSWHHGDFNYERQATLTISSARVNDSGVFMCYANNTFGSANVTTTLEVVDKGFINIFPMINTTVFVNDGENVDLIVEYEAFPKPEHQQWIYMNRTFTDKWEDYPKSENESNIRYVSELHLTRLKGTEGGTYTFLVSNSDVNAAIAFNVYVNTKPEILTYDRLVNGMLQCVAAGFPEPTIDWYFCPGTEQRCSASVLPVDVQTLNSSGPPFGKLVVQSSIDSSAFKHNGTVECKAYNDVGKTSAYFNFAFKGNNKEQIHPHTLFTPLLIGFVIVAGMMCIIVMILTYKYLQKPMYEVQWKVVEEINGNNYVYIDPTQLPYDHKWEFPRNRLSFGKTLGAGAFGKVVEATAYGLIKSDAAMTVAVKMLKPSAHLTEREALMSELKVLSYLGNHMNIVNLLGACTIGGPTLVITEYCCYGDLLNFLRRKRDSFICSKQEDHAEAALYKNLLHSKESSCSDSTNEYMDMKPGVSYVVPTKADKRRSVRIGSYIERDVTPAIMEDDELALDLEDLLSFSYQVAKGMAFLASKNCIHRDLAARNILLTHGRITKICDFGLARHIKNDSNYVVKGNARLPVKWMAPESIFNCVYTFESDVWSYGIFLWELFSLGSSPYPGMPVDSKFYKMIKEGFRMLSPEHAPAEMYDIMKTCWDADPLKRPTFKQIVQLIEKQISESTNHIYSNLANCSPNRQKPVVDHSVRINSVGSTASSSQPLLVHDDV
# [4] = molecular target: Phosphatidylinositol 4,5-bisphosphate 3-kinase catalytic subunit delta isoform (Homo sapiens) (UniProt O00329); assay: Binding affinity to wild-type human partial length PIK3CD (R108 to Q1044 residues) expressed in mammalian expression system assessed as residual binding level at 10 uM by Kinomescan method relative to control
# [5] = molecular target: Ephrin type-A receptor 3 (Homo sapiens) (UniProt P29320); assay: Binding affinity to wild-type human partial length EPHA3 (D604 to K889 residues) expressed in bacterial expression system assessed as residual binding level at 10 uM by Kinomescan method relative to control
# Ephrin type-A receptor 3 (Homo sapiens), sequence (P29320 whole entry, the tested form may be a part): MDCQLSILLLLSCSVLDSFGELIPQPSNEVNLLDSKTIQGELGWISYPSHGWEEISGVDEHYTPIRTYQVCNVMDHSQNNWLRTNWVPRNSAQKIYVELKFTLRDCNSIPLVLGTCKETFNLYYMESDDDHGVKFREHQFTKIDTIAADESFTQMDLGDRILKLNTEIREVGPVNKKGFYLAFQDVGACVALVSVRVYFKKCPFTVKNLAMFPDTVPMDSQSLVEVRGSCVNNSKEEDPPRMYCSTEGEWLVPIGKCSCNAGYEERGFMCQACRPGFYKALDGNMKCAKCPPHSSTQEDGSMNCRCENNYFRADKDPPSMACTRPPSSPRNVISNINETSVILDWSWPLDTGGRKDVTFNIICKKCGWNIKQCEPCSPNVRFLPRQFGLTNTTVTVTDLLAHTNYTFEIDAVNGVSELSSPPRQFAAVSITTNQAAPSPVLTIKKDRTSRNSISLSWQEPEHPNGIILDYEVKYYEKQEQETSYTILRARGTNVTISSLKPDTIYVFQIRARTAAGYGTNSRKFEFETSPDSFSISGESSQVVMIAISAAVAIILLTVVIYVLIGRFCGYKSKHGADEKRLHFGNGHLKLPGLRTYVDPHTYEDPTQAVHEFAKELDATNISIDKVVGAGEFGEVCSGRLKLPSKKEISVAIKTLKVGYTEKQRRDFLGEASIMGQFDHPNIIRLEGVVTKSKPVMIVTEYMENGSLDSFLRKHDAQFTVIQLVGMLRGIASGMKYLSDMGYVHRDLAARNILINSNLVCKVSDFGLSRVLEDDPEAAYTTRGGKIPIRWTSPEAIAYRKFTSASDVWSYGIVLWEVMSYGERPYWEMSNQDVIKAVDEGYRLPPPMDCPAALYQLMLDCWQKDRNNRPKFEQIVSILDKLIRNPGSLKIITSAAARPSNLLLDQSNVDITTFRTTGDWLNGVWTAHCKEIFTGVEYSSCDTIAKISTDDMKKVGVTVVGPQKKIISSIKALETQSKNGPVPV
# [6] = molecular target: Serine/threonine-protein kinase RIO1 (Homo sapiens) (UniProt Q9BRS2); assay: Binding affinity to wild-type human full length RIOK1 (M1 to K568 residues) expressed in bacterial expression system assessed as residual binding level at 10 uM by Kinomescan method relative to control
# Serine/threonine-protein kinase RIO1 (Homo sapiens), sequence (Q9BRS2 whole entry, the tested form may be a part): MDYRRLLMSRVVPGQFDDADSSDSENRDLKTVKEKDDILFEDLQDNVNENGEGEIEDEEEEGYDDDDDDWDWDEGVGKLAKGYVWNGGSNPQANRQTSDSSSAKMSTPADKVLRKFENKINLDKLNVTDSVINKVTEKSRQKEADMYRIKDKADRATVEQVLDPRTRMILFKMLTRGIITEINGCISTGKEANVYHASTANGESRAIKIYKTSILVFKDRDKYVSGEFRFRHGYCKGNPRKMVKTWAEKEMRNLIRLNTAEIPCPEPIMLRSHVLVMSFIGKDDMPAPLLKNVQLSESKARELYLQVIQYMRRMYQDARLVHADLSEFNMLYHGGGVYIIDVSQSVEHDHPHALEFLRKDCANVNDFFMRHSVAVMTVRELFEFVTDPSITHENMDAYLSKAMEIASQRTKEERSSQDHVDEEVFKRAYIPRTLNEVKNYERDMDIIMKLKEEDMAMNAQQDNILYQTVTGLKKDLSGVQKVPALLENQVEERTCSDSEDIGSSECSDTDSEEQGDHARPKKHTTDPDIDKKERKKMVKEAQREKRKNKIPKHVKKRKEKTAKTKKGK
# [7] = molecular target: Tyrosine-protein kinase JAK1 (Homo sapiens) (UniProt P23458); assay: Binding affinity to wild-type human partial length JAK1 JH2 pseudokinase domain (R537 to D855 residues) expressed in mammalian expression system assessed as residual binding level at 10 uM by Kinomescan method relative to control
# Tyrosine-protein kinase JAK1 (Homo sapiens), sequence (P23458 whole entry, the tested form may be a part): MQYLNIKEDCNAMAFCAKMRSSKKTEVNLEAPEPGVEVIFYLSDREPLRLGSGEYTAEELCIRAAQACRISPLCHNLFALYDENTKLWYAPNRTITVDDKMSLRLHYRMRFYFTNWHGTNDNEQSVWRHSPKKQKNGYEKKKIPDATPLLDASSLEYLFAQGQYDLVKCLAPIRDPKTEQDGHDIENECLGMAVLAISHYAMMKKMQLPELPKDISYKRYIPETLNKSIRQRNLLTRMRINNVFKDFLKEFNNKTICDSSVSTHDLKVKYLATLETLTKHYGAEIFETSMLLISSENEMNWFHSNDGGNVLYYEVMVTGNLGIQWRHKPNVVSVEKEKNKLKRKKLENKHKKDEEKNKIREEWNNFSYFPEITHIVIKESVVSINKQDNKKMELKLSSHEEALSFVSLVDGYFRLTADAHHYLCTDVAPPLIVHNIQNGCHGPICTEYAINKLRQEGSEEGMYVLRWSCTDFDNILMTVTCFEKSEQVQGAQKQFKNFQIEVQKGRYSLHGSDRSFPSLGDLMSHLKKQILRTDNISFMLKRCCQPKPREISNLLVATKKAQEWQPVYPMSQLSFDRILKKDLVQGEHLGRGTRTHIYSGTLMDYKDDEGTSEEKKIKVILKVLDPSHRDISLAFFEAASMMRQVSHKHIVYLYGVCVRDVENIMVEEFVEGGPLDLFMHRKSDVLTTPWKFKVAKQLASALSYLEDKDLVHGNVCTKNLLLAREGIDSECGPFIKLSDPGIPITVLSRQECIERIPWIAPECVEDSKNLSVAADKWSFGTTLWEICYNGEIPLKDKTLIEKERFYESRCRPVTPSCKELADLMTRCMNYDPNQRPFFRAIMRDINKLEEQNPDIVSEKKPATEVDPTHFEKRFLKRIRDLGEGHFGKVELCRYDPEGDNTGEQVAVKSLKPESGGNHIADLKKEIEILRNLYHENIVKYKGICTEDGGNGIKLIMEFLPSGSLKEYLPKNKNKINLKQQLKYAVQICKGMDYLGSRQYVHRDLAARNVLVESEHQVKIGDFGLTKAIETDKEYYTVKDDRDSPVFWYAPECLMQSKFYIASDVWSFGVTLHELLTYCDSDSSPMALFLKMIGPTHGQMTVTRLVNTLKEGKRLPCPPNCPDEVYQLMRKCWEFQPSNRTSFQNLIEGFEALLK
# [8] = tested on: Proto-oncogene tyrosine-protein kinase receptor Ret (Homo sapiens), P07949 [V804L]; assay: Binding affinity to human partial length RET V804L mutant (E713 to D1014 residues) expressed in bacterial expression system assessed as residual binding level at 10 uM by Kinomescan method relative to control
# [9] = molecular target: RAF proto-oncogene serine/threonine-protein kinase (Homo sapiens) (UniProt P04049); assay: Binding affinity to wild-type human partial length RAF1 (I330 to T640 residues) expressed in bacterial expression system assessed as residual binding level at 10 uM by Kinomescan method relative to control
# [10] = molecular target: Mitogen-activated protein kinase kinase kinase 3 (Homo sapiens) (UniProt Q99759); assay: Binding affinity to wild-type human partial length MAP3K3 (E320 to Y626 residues) expressed in mammalian expression system assessed as residual binding level at 10 uM by Kinomescan method relative to control
# [11] = molecular target: Cyclin-dependent kinase 2 (Homo sapiens) (UniProt P24941); assay: Binding affinity to wild-type human full length CDK2 (M1 to L298 residues) expressed in bacterial expression system assessed as residual binding level at 10 uM by Kinomescan method relative to control
# [12] = molecular target: Leucine-rich repeat serine/threonine-protein kinase 2 (Homo sapiens) (UniProt Q5S007); assay: Binding affinity to wild-type human partial length LRRK2 (H970 to E2527 residues) expressed in mammalian expression system assessed as residual binding level at 10 uM by Kinomescan method relative to control
# [13] = molecular target: Homeodomain-interacting protein kinase 2 (Homo sapiens) (UniProt Q9H2X6); assay: Binding affinity to wild-type human partial length HIPK2 (M153 to S564 residues) expressed in mammalian expression system assessed as residual binding level at 10 uM by Kinomescan method relative to control
# [14] = molecular target: Dual specificity tyrosine-phosphorylation-regulated kinase 2 (Homo sapiens) (UniProt Q92630); assay: Binding affinity to wild-type human full length DYRK2 (M1 to S528 residues) expressed in mammalian expression system assessed as residual binding level at 10 uM by Kinomescan method relative to control
# [15] = molecular target: Rho-associated protein kinase 1 (Homo sapiens) (UniProt Q13464); assay: Binding affinity to wild-type human partial length ROCK1 (M1 to R415 residues) expressed in mammalian expression system assessed as residual binding level at 10 uM by Kinomescan method relative to control
# [16] = molecular target: Ribosomal protein S6 kinase alpha-5 (Homo sapiens) (UniProt O75582); assay: Binding affinity to wild-type human partial length C-terminal RPS6KA5 kinase domain 2 (V390 to T718 residues) expressed in bacterial expression system assessed as residual binding level at 10 uM by Kinomescan method relative to control
# [17] = molecular target: Tyrosine-protein kinase JAK3 (Homo sapiens) (UniProt P52333); assay: Binding affinity to wild-type human partial length JAK3 JH1 catalytic domain (I781 to S1124 residues) expressed in mammalian expression system assessed as residual binding level at 10 uM by Kinomescan method relative to control
# [18] = molecular target: AP2-associated protein kinase 1 (Homo sapiens) (UniProt Q2M2I8); assay: Binding affinity to human wild-type AAK1 (G25 to L333 residues) expressed in bacterial expression system assessed as residual binding level at 10 uM by Kinomescan method relative to control
# [19] = molecular target: Tyrosine-protein kinase JAK1 (Homo sapiens) (UniProt P23458); assay: Binding affinity to wild-type human partial length JAK1 JH1 catalytic domain (V856 to K1154 residues) expressed in bacterial expression system assessed as residual binding level at 10 uM by Kinomescan method relative to control
# [20] = molecular target: 5'-AMP-activated protein kinase catalytic subunit alpha-2 (Homo sapiens) (UniProt P54646); assay: Binding affinity to wild-type human partial length AMPK alpha2 (M1 to E306 residues) expressed in bacterial expression system assessed as residual binding level at 10 uM by Kinomescan method relative to control
# 5'-AMP-activated protein kinase catalytic subunit alpha-2 (Homo sapiens), sequence (P54646 whole entry, looked up, the tested form may be a part): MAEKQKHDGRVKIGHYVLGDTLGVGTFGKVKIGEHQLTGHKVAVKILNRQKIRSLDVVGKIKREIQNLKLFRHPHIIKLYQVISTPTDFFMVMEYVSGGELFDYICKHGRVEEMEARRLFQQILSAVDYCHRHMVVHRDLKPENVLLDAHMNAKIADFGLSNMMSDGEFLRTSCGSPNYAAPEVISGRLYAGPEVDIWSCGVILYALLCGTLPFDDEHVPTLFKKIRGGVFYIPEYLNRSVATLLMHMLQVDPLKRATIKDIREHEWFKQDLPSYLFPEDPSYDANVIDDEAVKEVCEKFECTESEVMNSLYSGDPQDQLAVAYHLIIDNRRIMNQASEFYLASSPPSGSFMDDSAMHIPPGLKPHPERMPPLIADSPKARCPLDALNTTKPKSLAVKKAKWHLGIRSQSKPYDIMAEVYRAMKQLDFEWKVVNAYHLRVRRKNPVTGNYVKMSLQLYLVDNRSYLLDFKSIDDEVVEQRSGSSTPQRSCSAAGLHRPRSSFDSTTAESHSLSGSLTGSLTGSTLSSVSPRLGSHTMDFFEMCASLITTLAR
# [21] = molecular target: Glycogen synthase kinase-3 beta (Homo sapiens) (UniProt P49841); assay: Binding affinity to wild-type human full length GSK3B (M1 to T433 residues) expressed in mammalian expression system assessed as residual binding level at 10 uM by Kinomescan method relative to control
# [22] = molecular target: Cytoplasmic tyrosine-protein kinase BMX (Homo sapiens) (UniProt P51813); assay: Binding affinity to wild-type human full length BMX (M1 to H675 residues) expressed in bacterial expression system assessed as residual binding level at 10 uM by Kinomescan method relative to control
# [23] = molecular target: Serine/threonine-protein kinase LATS2 (Homo sapiens) (UniProt Q9NRM7); assay: Binding affinity to wild-type human partial length LATS2 (Q641 to V1088 residues) expressed in mammalian expression system assessed as residual binding level at 10 uM by Kinomescan method relative to control
# [24] = molecular target: Phosphatidylinositol 4-phosphate 5-kinase type-1 alpha (Homo sapiens) (UniProt Q99755); assay: Binding affinity to wild-type human full length PIP5K1A (M1 to H562 residues) expressed in bacterial expression system assessed as residual binding level at 10 uM by Kinomescan method relative to control
compound,measurement,setting,value
O=C(Nc1cc(-c2cn(CCNc3c4c(nc5ccccc35)CCCC4)nn2)ccn1)Nc1cccc2c1C1CCCCN1C2=O (racemic),Activity,[1],80%
same,Activity,[2],44%
same,Activity,[3],2.2%
same,Activity,[4],100%
same,Activity,[5],77%
same,Activity,[6],5.2%
same,Activity,[7],36%
same,Activity,[8],16%
same,Activity,[9],97%
same,Activity,[10],22%
same,Activity,[11],74%
same,Activity,[12],38%
same,Activity,[13],49%
same,Activity,[14],53%
same,Activity,[15],36%
same,Activity,[16],96%
same,Activity,[17],0.28%
same,Activity,[18],13%
same,Activity,[19],84%
same,Activity,[20],15%
same,Activity,[21],17%
same,Activity,[22],100%
same,Activity,[23],65%
same,Activity,[24],22%
